Laboratory results: PMC12709424, “Markovian state models uncover casein kinase 1 dynamics that govern circadian period” (Biophysical Journal, 2025)

Assays:
CK1 D132A = test: 32P-ATP time course kinase assay, CK1 D132A compared with WT; format: biochemical, human; conditions: 200 μM peptide, 30°C, pH 7.5, four independent assays
Experimental: (§1) PER FASP region peptides were synthesized and purified to 95% or higher (SABio). Two independent reaction mixtures of 50 μL containing 200 μM of the FASP or in reaction buffer (25 mM Tris (pH 7.5), 7.5 mM MgCl2, 1 mM DTT, and 0.1 mg/mL BSA) were preincubated for 5 min with or without 20 nM CK1 (for primed FASP) or 200 nM CK1 (for unprimed FASP) and the reaction was started by addition of 750 μM of UltraPure ATP (Promega) containing 1–2 μCi of ɣ-^32p ATP (PerkinElmer). After incubation of the reaction mix at 30°C, an 8-μL aliquot of the reaction mix was transferred to P81 phosphocellulose paper (Reaction Biology Corp) at the indicated timepoints. […] The air-dried P81 paper was counted for Pi incorporation using a scintillation counter (PerkinElmer) by Cherenkov counting. […]
To map binding sites on the surface of CK1, we employed FTMap, a fast computational approach that uses small organic probes to identify consensus sites (or pockets) that are likely to bind drug -like molecules. We submitted a series of conformations representative of the most populated MSM states to the FTMap server (https://ftmap.bu.edu/) and analyzed the results with FTProd. […] Tables S7 and S8 describe the consensus sites (CS) detected for WT and tau conformations, respectively. When a site is detected (colorful cells), it contains a score based on […]

[1] = molecular target: Human CK1δ catalytic domain (CK1, residues 1–317), wild type (human) (UniProt P48730)
CK1 [2] = test: 32P-ATP time course kinase assay, PER3 FASP-like peptides; format: biochemical, human; conditions: 32P-ATP time course, 200 μM peptide, 200 nM CK1 (unprimed), 750 μM ATP, 30°C, pH 7.5; four independent assays; Fig. S15E, F
Experimental: as §1
To map binding sites on the surface of CK1, we employed FTMap, a fast computational approach that uses small organic probes to identify consensus sites (or pockets) that are likely to bind drug -like molecules. We submitted a series of conformations representative of the most populated MSM states to the FTMap server (https://ftmap.bu.edu/) and analyzed the results with FTProd. […] Tables S7 and S8 describe the consensus sites (CS) detected for WT and tau conformations, respectively. When a site is detected (colorful cells), it contains a score based on (1 picture or pasted object on this page, not shown here)

CK1 [3] = conditions: cited from earlier work
From the text: Here, we further tested our model by introducing a lysine at the −3 position and a glutamate at the −1 position of PER3 FASP-like peptides (A610K/L612E) to mimic the PER2 FASP priming region and rescue priming activity. These mutant peptides were used in a ^32P-ATP time course kinase assay ...

Sequence of UniProt P48730 (P48730 other isoform, or with tags, fused parts or gaps mutant): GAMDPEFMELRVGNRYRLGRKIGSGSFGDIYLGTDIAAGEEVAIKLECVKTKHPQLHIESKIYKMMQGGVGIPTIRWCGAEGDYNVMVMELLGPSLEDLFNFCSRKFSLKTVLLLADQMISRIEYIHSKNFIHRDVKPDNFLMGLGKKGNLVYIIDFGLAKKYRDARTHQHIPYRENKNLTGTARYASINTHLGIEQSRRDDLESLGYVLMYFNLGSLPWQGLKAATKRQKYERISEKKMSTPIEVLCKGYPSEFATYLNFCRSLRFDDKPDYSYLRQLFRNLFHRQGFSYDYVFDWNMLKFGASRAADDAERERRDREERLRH

RKKKTEVSAHLSSLTLP GKAESVVSLTSQ [unprimed FASP peptide, synthetic mouse PER2 FASP peptide, unprimed]
activity of CK1 D132A compared with CK1 WT on unprimed FASP (in words) (CK1 D132A; 200 nM CK1, 750 μM ATP, Fig. S15B): dramatic loss in activity

human PER2 FASP peptide, “priming only” (S665A)
apparent Michaelis-Menten constant (KMapp) of CK1 priming activity, ADP-Glo substrate titration (200 nM CK1, 100 μM ATP, room temperature, 1 h) [1]: 210 µM

human PER2 FASP peptide, alanine at position −1 (E661) in the “priming only” (S665A) background
fold change of the apparent Michaelis-Menten constant (KMapp) against the WT “priming only” substrate, ADP-Glo substrate titration [1]: 10 fold

RKKKTEVSAHLSSLTL PGKAEpSVVSLTSQ [primed FASP peptide, synthetic mouse PER2 FASP peptide, pS659 primed]
activity of CK1 D132A compared with CK1 WT on primed FASP (in words) (CK1 D132A; 20 nM CK1, 750 μM ATP, Fig. S15C): more modest effect

RKKKPSTDIEGGAAR TLSTKAESVAAGIAQ [A610K/L612E (priming only), PER3 KAE peptide with serine residues downstream of the priming site mutated to alanine]
CK1 activity in presence of −3K and −1E (in words) (CK1 [2]): increase in CK1 activity

RKKKPSTDIEGGAART LSTKAESVASGISQ [A610K/L612E, PER3 FASP-like peptide with −3K and −1E (A610K/L612E)]
CK1 activity in presence of −3K and −1E (in words) (CK1 [2]): increase in CK1 activity

human PER2 FASP peptide, alanine at position −3 (K659) in the “priming only” (S665A) background
fold change of the apparent Michaelis-Menten constant (KMapp) against the WT “priming only” substrate, ADP-Glo substrate titration [1]: 10 fold

B1: PER3: PER homolog within the circadian system (protein, UniProt P56645 1-1201, looked up)
Period circadian protein …: MPRGEAPGPGRRGAKDEALGEESGERWSPEFHLQRKLADSSHSEQQDRNRVSEELIMVVQEMKKYFPSERRNKPSTLDALNYALRCVHSVQANSEFFQILSQNGAPQADVSMYSLEELATIASEHTSKNTDTFVAVFSFLSGRLVHISEQAALILNRKKDVLASSHFVDLLAPQDMRVFYAHTARAQLPFWNNWTQRAARYECAPVKPFFCRIRGGEDRKQEKCHSPFRIIPYLIHVHHPAQPELESEPCCLTVVEKIHSGYEAPRIPVNKRIFTTTHTPGCVFLEVDEKAVPLLGYLPQDLIGTSILSYLHPEDRSLMVAIHQKVLKYAGHPPFEHSPIRFCTQNGDYIILDSSWSSFVNPWSRKISFIIGRHKVRTSPLNEDVFATKIKKMNDNDKDITELQEQIYKLLLQPVHVSVSSGYGSLGSSGSQEQLVSIASSSEASGHRVEETKAEQMTLQQVYASVNKIKNLGQQLYIESMTKSSFKPVTGTRTEPNGGGECKTFTSFHQTLKNNSVYTEPCEDLRNDEHSPSYQQINCIDSVIRYLKSYNIPALKRKCISCTNTTSSSSEEDKQNHKADDVQALQAGLQIPAIPKSEMPTNGRSIDTGGGAPQILSTAMLSLGSGISQCGYSSTIVHVPPPETARDATLFCEPWTLNMQPAPLTSEEFKHVGLTAAVLSAHTQKEEQNYVDKFREKILSSPYSSYLQQESRSKAKYSYFQGDSTSKQTRSAGCRKGKHKRKKLPEPPDSSSSNTGSGPRRGAHQNAQPCCPSAASSPHTSSPTFPPAAMVPSQAPYLVPAFPLPAATSPGREYAAPGTAPEGLHGLPLSEGLQPYPAFPFPYLDTFMTVFLPDPPVCPLLSPSFLPCPFLGATASSAISPSMSSAMSPTLDPPPSVTSQRREEEKWEAQSEGHPFITSRSSSPLQLNLLQEEMPRPSESPDQMRRNTCPQTEYCVTGNNGSESSPATTGALSTGSPPRENPSHPTASALSTGSPPMKNPSHPTASALSTGSPPMKNPSHPTASTLSMGLPPSRTPSHPTATVLSTGSPPSESPSRTGSAASGSSDSSIYLTSSVYSSKISQNGQQSQDVQKKETFPNVAEEPIWRMIRQTPERILMTYQVPERVKEVVLKEDLEKLESMRQQQPQFSHGQKEELAKVYNWIQSQTVTQEIDIQACVTCENEDSADGAATSCGQVLVEDSC
CK1 substrate status (in words) (CK1 [3]): does not appear to be a substrate of the kinase
